Results on eleven molecules are retold here after patent US10208074B2, “Pyrazole compounds and method for making and using the compounds” (Rigel Pharmaceuticals, Inc., priority 2015, dated 2019).

Broadly, the pEC50 is the EC50 on a negative log10 scale, so that one unit is a factor of ten. Usually EC50 stands for the midpoint of the concentration-response curve.

Assay [1] deals with IL-23 (p19/p40). In words: IL23-p19 ELISA, Dendritic, LPS (compound screening using DC cells). The format is cell-based, Human. Particulars: for pEC50: PBMC-derived DC cells, IFNγ primed, LPS 1 μg/ml, 18 hours, 10 pt, read-out: IL23-p19 ELISA, Dendritic, LPS, 10 pt, EC50. Summed up:
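IL-23 in supernatants quantified by sandwich ELISA (anti-p19 capture, biotinylated anti-p40 detection, chemiluminescent readout) after 18 h LPS (1 μg/ml) stimulation. Cells were monocyte-derived DCs (GM-CSF/IL-4, 7 d), IFNγ-primed 24 h and given compound 1 h before LPS; viability by CellTiter Glo.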
Background: ELISA stands for enzyme-linked immunosorbent assay.

The subject of assay [2] is IL-23p19. In words: LPS induced IL23p19 in THP-1 cells (with IFNγ primed) assay. The format is cell-based, Human. Particulars: for pEC50: THP-1 cells, IFNγ primed, LPS 1 ug/mL, 18 hours, 10 pt, read-out: IL23-p19 ELISA, THP1-IFNy, LPS, 10 pt EC50. A digest of the protocol: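 Readout is secreted IL-23p19, quantified by chemiluminescent sandwich ELISA after 18 h LPS (1 ug/mL) stimulation of THP-1 cells that had been IFNγ-primed (50 ng/mL, ~18 h) and given compound 1 h beforehand at 37 °C. EC50 derived by curve fit; cytotoxicity tracked with Cell Titer Glo.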

pEC50: −log10 of the molar value. Where a name gives a salt, the structure may show the parent alone. Read-outs that look alike come from different tables or passages of the source.

Take `CCOCCn1cc(NC(=O)c2ccc(-c3cnn(CC)c3)o2)c(-c2ccccn2)n1` [Compound I-39, N-(1-(2-ethoxyethyl)-3-(pyridin-2-yl)-1H-pyrazol-4-yl)-5-(1-ethyl-1H-pyrazol-4-yl)furan-2-carboxamide formate]: the pEC50 in assay [1] (Homo sapiens, 18 h) was 5.36; in assay [2] (Homo sapiens, THP-1, 18 h) it was 5.71.
Regarding `Cc1n[nH]cc1-c1nc(C(=O)Nc2cn(C3COC3)nc2-c2ccccn2)cs1` [II-41, 2-(3-methyl-1H-pyrazol-4-yl)-N-(1-(oxetan-3-yl)-3-(pyridin-2-yl)-1H-pyrazol-4-yl)thiazole-4-carboxamide, formic acid salt], the pEC50 was 7.73 in assay [1] (Homo sapiens, 18 h) and 7.38 in assay [2] (Homo sapiens, THP-1, 18 h).
With `CCO[C@H]1C[C@@H](n2cc(NC(=O)c3ccc(-c4cn[nH]c4)o3)c(-c3cccc(F)n3)n2)C1` [Compound I-144, N-(1-((1s,3s)-3-ethoxycyclobutyl)-3-(6-fluoropyridin-2-yl)-1H-pyrazol-4-yl)-5-(1H-pyrazol-4-yl)furan-2-carboxamide formate], the negative-log EC50 (pEC50) was 7.46 in assay [1] (Homo sapiens, 18 h) and 7.11 in assay [2] (Homo sapiens, THP-1, 18 h).
Regarding `O=C(Nc1cn(CC2(CO)COC2)nc1-c1ccccn1)c1csc(-c2cn[nH]c2)n1` [II-47, N-(1-((3-(hydroxymethyl)oxetan-3-yl)methyl)-3-(pyridin-2-yl)-1H-pyrazol-4-yl)-2-(1H-pyrazol-4-yl)thiazole-4-carboxamide], the pEC50 in assay [1] (Homo sapiens, 18 h) is 5.49; in assay [2] (Homo sapiens, THP-1, 18 h) it was 5.93.
For the molecule `COC1CC(n2cc(NC(=O)c3ccc(-c4cn[nH]c4)o3)c(-c3ccccn3)n2)C1` (stereo not drawn) [Compound I-71, N-{1-(3-Methoxycyclobutyl)-3-(pyridine-2-yl)-1H-pyrazol-4-yl}-5-(1H-pyrazol-4-yl)furan-2-carboxamide, formate salt, Cis isomer], the results for the pEC50 in assay [1] and in assay [2] were 7.65 and 7.58, respectively.
As to `Cn1cc(NC(=O)c2ccc(-c3cn[nH]c3)o2)c(-c2ccccn2)n1` [Compound I-67, N-{1-Methyl-3-(pyridine-2-yl)-1H-pyrazol-4-yl}-5-(1H-pyrazol-4-yl)furan-2-carboxamide, formate salt], the pEC50 in assay [1] (formate salt) was 8.39; in assay [2] (Homo sapiens, THP-1, 18 h) it was 7.14.
`O=C(Nc1cn(C(F)F)nc1-c1ccccn1)c1ccc(-c2cn[nH]c2)o1` [Compound I-115, N-(1-(difluoromethyl)-3-(pyridin-2-yl)-1H-pyrazol-4-yl)-5-(1H-pyrazol-4-yl)furan-2-carboxamide]: the pEC50 was 6.44 in assay [1] (Homo sapiens, 18 h) and 7.04 in assay [2] (Homo sapiens, THP-1, 18 h).
On the same counts, the results for `CC(C)(C)OC(=O)N1CC(n2cc(NC(=O)c3csc(-c4cn[nH]c4)n3)c(-c3ccccn3)n2)C1` [II-54] are 6.72 and 6.77.
On the same counts, the results for `COCCn1cc(NC(=O)c2ccc(-c3cnn(COP(=O)(O)O)c3)o2)c(-c2ccccn2)n1` [Compound I-12, (4-(5-((1-(2-methoxyethyl)-3-(pyridin-2-yl)-1H-pyrazol-4-yl)carbamoyl)furan-2-yl)-1H-pyrazol-1-yl)methyl dihydrogen phosphate] are 5.98 and 6.23.
Consider `CCO[C@H]1C[C@@H](n2cc(NC(=O)c3csc(-c4cnn(COP(=O)(O)O)c4)n3)c(-c3ccccn3)n2)C1` [II-82, (4-(4-((1-((1,3-cis)-3-ethoxycyclobutyl)-3-(pyridin-2-yl)-1H-pyrazol-4-yl)carbamoyl)thiazol-2-yl)-1H-pyrazol-1-yl)methyl phosphate bis-arginine salt], for which the EC50 in assay [1] (Homo sapiens, 18 h, read-out: IL23-p19 ELISA, Dendritic, LPS, 10 pt, EC50 (μM)) was determined as 0.176 µM; in assay [2] (Homo sapiens, THP-1, 18 h, read-out: IL23-p19 ELISA, THP1-IFNy, LPS, 10 pt EC50 (μM)), 0.0387 µM.
Consider `COc1ccc(COCC(C)(C)OC(=O)n2cc(-c3nc(C(=O)Nc4cn(C)nc4-c4ccccn4)cs3)cn2)cc1` [II-6, 1-((4-methoxybenzyl)oxy)-2-methylpropan-2-yl 4-(4-((1-methyl-3-(pyridin-2-yl)-1H-pyrazol-4-yl)carbamoyl)thiazol-2-yl)-1H-pyrazole-1-carboxylate], for which the negative-log EC50 (pEC50) is 5.16 in assay [1] (Homo sapiens, 18 h) and 7.06 in assay [2] (Homo sapiens, THP-1, 18 h).
